Key:
Test in all cases: KINOMEscan competition binding
Conditions in all cases: compound 0.1 µM
ABL1 (human) = ABL1 (human) (UniProt P00519)
BMP2K (human) = BMP2K (human) (UniProt Q9NSY1)
BRAF (human) = BRAF (human) (UniProt P15056)
CAMK2B (human) = CAMK2B (human) (UniProt Q13554)
CASK (human) = CASK (human) (UniProt O14936)
CDC2L2 (human) = CDC2L2 (human) (UniProt Q9UQ88)
CDK16 (human) = CDK16 (human) (UniProt Q00536)
CDK5 (human) = CDK5 (human) (UniProt Q00535)
CDK7 (human) = CDK7 (human) (UniProt P50613)
Sequence of CDK7 (human) (P50613 whole entry, looked up): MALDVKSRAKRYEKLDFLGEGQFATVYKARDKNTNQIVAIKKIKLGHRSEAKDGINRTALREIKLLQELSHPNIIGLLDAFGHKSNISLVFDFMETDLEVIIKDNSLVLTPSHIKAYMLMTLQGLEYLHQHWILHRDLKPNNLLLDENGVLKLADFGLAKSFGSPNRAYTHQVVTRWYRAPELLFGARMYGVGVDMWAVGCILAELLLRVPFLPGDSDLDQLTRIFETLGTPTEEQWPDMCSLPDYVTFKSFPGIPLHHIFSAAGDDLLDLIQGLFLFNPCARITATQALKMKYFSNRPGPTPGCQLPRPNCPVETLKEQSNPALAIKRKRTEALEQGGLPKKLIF

CSK (human) = CSK (human) (UniProt P41240)
DAPK1 (human) = DAPK1 (human) (UniProt P53355)
DCLK1 (human) = DCLK1 (human) (UniProt O15075)
GRK1 (human) = GRK1 (human) (UniProt Q15835)
HIPK2 (human) = HIPK2 (human) (UniProt Q9H2X6)
IRAK1 (human) = IRAK1 (human) (UniProt P51617)
KDR (human) = KDR (human) (UniProt P35968)
LIMK1 (human) = LIMK1 (human) (UniProt P53667)
MAP2K4 (human) = MAP2K4 (human) (UniProt P45985)
MAP3K11 (human) = MAP3K11 (human) (UniProt Q16584)
MAP4K2 (human) = MAP4K2 (human) (UniProt Q12851)
MAP4K3 (human) = MAP4K3 (human) (UniProt Q8IVH8)
Sequence of MAP4K3 (human) (Q8IVH8 whole entry, looked up): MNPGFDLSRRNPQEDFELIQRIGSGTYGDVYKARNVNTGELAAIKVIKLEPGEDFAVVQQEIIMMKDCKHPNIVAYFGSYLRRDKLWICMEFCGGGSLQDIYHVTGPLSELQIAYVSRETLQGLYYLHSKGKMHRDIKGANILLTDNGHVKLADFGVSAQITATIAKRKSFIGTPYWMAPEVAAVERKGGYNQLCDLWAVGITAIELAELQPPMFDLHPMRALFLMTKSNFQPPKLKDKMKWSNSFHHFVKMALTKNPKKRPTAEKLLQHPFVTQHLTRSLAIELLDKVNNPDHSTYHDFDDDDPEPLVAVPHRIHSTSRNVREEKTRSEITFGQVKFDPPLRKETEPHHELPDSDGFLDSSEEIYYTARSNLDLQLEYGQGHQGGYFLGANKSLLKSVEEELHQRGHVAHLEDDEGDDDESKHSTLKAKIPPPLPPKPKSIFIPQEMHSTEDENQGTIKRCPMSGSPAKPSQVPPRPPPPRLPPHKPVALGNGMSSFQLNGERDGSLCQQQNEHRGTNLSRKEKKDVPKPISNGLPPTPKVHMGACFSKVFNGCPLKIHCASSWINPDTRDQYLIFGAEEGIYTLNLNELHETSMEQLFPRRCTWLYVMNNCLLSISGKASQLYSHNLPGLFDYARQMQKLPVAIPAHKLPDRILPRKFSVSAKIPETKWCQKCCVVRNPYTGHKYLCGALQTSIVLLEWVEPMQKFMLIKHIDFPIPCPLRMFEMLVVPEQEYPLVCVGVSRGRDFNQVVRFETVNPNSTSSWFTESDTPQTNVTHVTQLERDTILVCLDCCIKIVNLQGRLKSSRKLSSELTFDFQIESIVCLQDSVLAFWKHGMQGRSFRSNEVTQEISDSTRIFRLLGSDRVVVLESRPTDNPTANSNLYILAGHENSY

MAPK1 (human) = MAPK1 (human) (UniProt P28482)
MAPK14 (human) = MAPK14 (human) (UniProt Q16539)
MAPK6 (human) = MAPK6 (human) (UniProt Q16659)
Sequence of MAPK6 (human) (Q16659 whole entry, looked up): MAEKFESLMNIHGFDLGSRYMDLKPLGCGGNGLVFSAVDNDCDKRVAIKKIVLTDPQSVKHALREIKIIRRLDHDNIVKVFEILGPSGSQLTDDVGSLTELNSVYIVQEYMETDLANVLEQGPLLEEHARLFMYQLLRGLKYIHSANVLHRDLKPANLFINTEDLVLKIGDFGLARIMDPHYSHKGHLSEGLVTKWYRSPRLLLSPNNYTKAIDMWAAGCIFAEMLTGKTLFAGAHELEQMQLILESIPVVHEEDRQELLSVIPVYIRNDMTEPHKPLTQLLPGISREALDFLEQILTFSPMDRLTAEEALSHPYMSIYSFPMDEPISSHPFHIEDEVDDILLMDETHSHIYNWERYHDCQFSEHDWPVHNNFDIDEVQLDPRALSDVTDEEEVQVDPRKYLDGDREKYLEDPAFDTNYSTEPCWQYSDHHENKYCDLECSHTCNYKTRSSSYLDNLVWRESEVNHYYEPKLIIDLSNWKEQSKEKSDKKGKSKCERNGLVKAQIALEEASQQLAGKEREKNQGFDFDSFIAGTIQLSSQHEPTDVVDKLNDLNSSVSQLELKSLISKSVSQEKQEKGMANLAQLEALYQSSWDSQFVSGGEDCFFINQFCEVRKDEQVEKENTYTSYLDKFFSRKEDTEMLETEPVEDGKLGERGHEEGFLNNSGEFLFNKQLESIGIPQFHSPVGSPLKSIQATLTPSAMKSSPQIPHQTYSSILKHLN

MARK1 (human) = MARK1 (human) (UniProt Q9P0L2)
MARK4 (human) = MARK4 (human) (UniProt Q96L34)
MELK (human) = MELK (human) (UniProt Q14680)
Sequence of MELK (human) (Q14680 whole entry, looked up): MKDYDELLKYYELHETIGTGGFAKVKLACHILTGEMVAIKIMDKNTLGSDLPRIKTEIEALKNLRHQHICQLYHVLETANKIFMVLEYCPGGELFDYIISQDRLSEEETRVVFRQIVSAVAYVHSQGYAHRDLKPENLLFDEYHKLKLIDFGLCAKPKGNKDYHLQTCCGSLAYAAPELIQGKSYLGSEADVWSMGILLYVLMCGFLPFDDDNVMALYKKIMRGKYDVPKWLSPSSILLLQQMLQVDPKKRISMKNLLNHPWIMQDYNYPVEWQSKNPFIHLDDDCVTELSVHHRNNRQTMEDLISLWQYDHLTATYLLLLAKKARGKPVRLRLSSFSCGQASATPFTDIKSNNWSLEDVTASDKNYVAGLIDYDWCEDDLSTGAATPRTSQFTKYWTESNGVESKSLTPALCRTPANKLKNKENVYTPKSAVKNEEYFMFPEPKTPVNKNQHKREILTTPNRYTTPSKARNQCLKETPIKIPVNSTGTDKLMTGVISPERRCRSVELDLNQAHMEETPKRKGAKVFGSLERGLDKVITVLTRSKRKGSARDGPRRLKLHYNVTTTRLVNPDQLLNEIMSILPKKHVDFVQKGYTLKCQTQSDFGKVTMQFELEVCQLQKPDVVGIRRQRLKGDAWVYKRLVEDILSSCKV

MYO3B (human) = MYO3B (human) (UniProt Q8WXR4)
Sequence of MYO3B (human) (Q8WXR4 whole entry, looked up): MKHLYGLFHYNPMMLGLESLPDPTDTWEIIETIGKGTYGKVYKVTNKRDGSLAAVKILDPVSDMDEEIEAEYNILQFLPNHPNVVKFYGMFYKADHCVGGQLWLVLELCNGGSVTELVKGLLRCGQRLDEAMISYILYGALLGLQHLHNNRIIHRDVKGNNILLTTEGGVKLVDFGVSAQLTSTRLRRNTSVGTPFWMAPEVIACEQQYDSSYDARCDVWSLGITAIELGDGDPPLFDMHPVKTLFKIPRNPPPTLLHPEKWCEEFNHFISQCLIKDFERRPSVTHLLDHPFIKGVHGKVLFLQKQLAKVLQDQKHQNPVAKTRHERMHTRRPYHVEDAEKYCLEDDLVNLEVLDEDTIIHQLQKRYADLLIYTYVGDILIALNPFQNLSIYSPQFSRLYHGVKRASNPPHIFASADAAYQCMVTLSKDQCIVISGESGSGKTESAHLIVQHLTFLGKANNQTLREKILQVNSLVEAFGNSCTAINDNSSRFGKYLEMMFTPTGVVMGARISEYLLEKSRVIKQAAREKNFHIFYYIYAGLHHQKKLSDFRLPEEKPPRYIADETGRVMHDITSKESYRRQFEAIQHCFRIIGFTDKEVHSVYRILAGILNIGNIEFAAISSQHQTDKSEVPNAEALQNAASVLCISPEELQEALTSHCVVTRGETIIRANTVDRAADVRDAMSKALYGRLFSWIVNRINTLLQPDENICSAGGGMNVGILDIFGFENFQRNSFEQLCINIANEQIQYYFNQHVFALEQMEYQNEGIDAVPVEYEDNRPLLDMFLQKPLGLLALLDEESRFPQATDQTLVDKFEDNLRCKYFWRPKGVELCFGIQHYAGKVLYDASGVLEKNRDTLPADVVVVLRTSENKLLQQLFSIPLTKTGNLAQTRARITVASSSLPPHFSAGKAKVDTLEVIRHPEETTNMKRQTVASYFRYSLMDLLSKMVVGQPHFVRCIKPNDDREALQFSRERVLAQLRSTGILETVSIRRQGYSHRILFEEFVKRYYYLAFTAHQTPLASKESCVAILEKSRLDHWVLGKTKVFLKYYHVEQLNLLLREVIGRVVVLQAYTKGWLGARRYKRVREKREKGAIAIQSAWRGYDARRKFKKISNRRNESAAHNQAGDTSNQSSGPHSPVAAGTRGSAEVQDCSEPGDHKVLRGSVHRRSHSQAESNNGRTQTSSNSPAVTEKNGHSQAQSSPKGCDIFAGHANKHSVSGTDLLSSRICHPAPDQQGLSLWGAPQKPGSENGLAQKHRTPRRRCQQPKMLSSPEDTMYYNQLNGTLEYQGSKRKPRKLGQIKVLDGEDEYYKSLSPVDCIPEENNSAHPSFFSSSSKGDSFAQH

PI4KB (human) = PI4KB (human) (UniProt Q9UBF8)
PIK3CD (human) = PIK3CD (human) (UniProt O00329)
PKN3 (M.tuberculosis) = PKN3 (M.tuberculosis) (UniProt Q6P5Z2)
PLK4 (human) = PLK4 (human) (UniProt O00444)
PRKD3 (human) = PRKD3 (human) (UniProt O94806)
PRKG1 (human) = PRKG1 (human) (UniProt Q13976)
ROS1 (human) = ROS1 (human) (UniProt P08922)
STK17B (human) = STK17B (human) (UniProt O94768)
STK35 (human) = STK35 (human) (UniProt Q8TDR2)
TGFBR2 (human) = TGFBR2 (human) (UniProt P37173)
TLK1 (human) = TLK1 (human) (UniProt Q9UKI8)
TRPM6 (human) = TRPM6 (human) (UniProt Q9BX84)
ZAP70 (human) = ZAP70 (human) (UniProt P43403)

Sequence of BRAF (human) (P15056 whole entry, looked up): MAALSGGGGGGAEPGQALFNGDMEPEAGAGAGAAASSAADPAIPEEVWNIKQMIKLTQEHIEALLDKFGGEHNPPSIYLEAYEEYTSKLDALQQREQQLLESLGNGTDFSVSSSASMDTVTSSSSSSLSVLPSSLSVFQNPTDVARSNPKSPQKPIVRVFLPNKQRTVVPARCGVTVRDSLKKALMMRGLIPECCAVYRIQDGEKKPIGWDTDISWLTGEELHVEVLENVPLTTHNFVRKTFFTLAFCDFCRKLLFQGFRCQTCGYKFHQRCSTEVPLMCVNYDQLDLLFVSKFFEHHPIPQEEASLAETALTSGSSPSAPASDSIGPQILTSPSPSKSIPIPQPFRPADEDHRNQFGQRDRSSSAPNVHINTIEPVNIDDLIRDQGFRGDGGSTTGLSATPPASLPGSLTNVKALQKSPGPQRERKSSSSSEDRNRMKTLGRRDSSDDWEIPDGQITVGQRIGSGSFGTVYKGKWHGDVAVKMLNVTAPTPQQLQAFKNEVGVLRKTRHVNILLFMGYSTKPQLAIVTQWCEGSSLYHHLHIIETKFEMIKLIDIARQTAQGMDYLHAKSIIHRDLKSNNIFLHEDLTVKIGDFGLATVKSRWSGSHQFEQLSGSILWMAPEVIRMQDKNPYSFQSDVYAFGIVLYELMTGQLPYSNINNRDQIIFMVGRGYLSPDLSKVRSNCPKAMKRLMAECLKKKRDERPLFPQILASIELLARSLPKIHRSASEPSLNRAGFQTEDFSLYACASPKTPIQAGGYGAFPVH
Sequence of CDK5 (human) (Q00535 whole entry, looked up): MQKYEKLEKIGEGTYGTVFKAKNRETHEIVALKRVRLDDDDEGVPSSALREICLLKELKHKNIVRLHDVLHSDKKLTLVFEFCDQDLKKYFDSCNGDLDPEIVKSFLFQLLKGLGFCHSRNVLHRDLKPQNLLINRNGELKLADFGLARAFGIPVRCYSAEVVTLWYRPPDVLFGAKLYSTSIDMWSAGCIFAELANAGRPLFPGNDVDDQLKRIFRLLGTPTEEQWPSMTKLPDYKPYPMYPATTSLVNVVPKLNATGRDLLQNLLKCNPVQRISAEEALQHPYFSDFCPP

With `CCc1ccc(C(=O)Nc2cc(CN3CCN(C)CC3)cc(C(F)(F)F)c2)cc1C#Cc1cnc2ccnn2c1` the kinase still bound, per cent of control (ABL1 (human)) was 100%, the kinase still bound, per cent of control (BMP2K (human)) was 86% and the kinase still bound, per cent of control (BRAF (human)) was 53%. For the same compound, the kinase still bound, per cent of control (CAMK2B (human)) was 72%, the kinase still bound, per cent of control (CASK (human)) was 100% and the kinase still bound, per cent of control (CDC2L2 (human)) was 100%. The kinase still bound, per cent of control (CDK16 (human)) was 100%, the kinase still bound, per cent of control (CDK5 (human)) was 100% and the kinase still bound, per cent of control (CDK7 (human)) was 100%. The kinase still bound, per cent of control (CSK (human)) was 92%, the kinase still bound, per cent of control (DAPK1 (human)) was 100% and the kinase still bound, per cent of control (DCLK1 (human)) was 100%. For the same compound, the kinase still bound, per cent of control (GRK1 (human)) was 100%, the kinase still bound, per cent of control (HIPK2 (human)) was 100% and the kinase still bound, per cent of control (IRAK1 (human)) was 100%. It also gave a kinase still bound, per cent of control (KDR (human)) of 100%, a kinase still bound, per cent of control (LIMK1 (human)) of 85% and a kinase still bound, per cent of control (MAP2K4 (human)) of 100%. It also gave a kinase still bound, per cent of control (MAP3K11 (human)) of 83%, a kinase still bound, per cent of control (MAP4K2 (human)) of 100% and a kinase still bound, per cent of control (MAP4K3 (human)) of 100%. The kinase still bound, per cent of control (MAPK1 (human)) was 100%, the kinase still bound, per cent of control (MAPK14 (human)) was 85% and the kinase still bound, per cent of control (MAPK6 (human)) was 98%. For the same compound, the kinase still bound, per cent of control (MARK1 (human)) was 74%, the kinase still bound, per cent of control (MARK4 (human)) was 71% and the kinase still bound, per cent of control (MELK (human)) was 95%. It also gave a kinase still bound, per cent of control (MYO3B (human)) of 100%, a kinase still bound, per cent of control (PI4KB (human)) of 100% and a kinase still bound, per cent of control (PIK3CD (human)) of 74%. The kinase still bound, per cent of control (PKN3 (M.tuberculosis)) was 78%, the kinase still bound, per cent of control (PLK4 (human)) was 100% and the kinase still bound, per cent of control (PRKD3 (human)) was 97%. For the same compound, the kinase still bound, per cent of control (PRKG1 (human)) was 99%, the kinase still bound, per cent of control (ROS1 (human)) was 78% and the kinase still bound, per cent of control (STK17B (human)) was 75%. For the same compound, the kinase still bound, per cent of control (STK35 (human)) was 100%, the kinase still bound, per cent of control (TGFBR2 (human)) was 100% and the kinase still bound, per cent of control (TLK1 (human)) was 100%. For the same compound, the kinase still bound, per cent of control (TRPM6 (human)) was 90% and the kinase still bound, per cent of control (ZAP70 (human)) was 100%.
